Drawing on ChEMBL document CHEMBL4304811, “Development of a Water-Soluble Indolylmaleimide Derivative IM-93 Showing Dual Inhibition of Ferroptosis and NETosis” (ACS Med Chem Lett, 2019), this text covers Activity for one compound.

Assay [1] addresses Ephrin type-B receptor 6 (Homo sapiens) (UniProt O15197). Nature of the assay: Binding affinity to wild-type human partial length EPHB6 (Q634 to P948 residues) expressed in mammalian expression system assessed as residual binding level at 10 uM by Kinomescan method relative to control.
Assay [2] deals with Mast/stem cell growth factor receptor Kit (Homo sapiens), P10721 [A829P]. As to the kind of experiment: Binding affinity to human partial length KIT A829P mutant (I571 to D952 residues) expressed in mammalian expression system assessed as residual binding level at 10 uM by Kinomescan method relative to control.
Assay [3] addresses Dual specificity protein kinase CLK3 (Homo sapiens) (UniProt P49761). Nature of the assay: Binding affinity to wild-type human full length CLK3 (M1 to R490 residues) expressed in bacterial expression system assessed as residual binding level at 10 uM by Kinomescan method relative to control.
Assay [4] has as its target SNF-related serine/threonine-protein kinase (Homo sapiens) (UniProt Q9NRH2). Nature of the assay: Binding affinity to wild-type human partial length SNRK (M1 to E339 residues) expressed in mammalian expression system assessed as residual binding level at 10 uM by Kinomescan method relative to control.
The target of assay [5] is Serine/threonine-protein kinase DCLK3 (Homo sapiens) (UniProt Q9C098). Nature of the assay: Binding affinity to wild-type human partial length DCAMKL3 (E140 to V628 residues) expressed in bacterial expression system assessed as residual binding level at 10 uM by Kinomescan method relative to control.
For assay [6], the target named is Calcium/calmodulin-dependent protein kinase kinase 2 (Homo sapiens) (UniProt Q96RR4). Nature of the assay: Binding affinity to wild-type human partial length CAMKK2 (D65 to V471 residues) expressed in bacterial expression system assessed as residual binding level at 10 uM by Kinomescan method relative to control.
For assay [7], the target named is Macrophage colony-stimulating factor 1 receptor (Homo sapiens) (UniProt P07333). Nature of the assay: Binding affinity to wild-type human partial length autoinhibited CSF1R (Y538 to S939 residues) expressed in mammalian expression system assessed as residual binding level at 10 uM by Kinomescan method relative to control.
Assay [8] has as its system Mast/stem cell growth factor receptor Kit (Homo sapiens), P10721 [D816H]. As to the kind of experiment: Binding affinity to human partial length KIT D816H mutant (I571 to D952 residues) expressed in mammalian expression system assessed as residual binding level at 10 uM by Kinomescan method relative to control.
The target in assay [9] is Insulin receptor-related protein (Homo sapiens) (UniProt P14616). Nature of the assay: Binding affinity to wild-type human partial length INSRR (R950 to E1278 residues) expressed in bacterial expression system assessed as residual binding level at 10 uM by Kinomescan method relative to control.
Assay [10] deals with Uncharacterized serine/threonine-protein kinase SBK3 (Homo sapiens) (UniProt P0C264). Nature of the assay: Binding affinity to wild-type human partial length SgK110 (L22 to R329 residues) expressed in bacterial expression system assessed as residual binding level at 10 uM by Kinomescan method relative to control.
The target of assay [11] is Tyrosine-protein kinase SYK (Homo sapiens) (UniProt P43405). Nature of the assay: Binding affinity to wild-type human partial length SYK (D354 to N635 residues) expressed in bacterial expression system assessed as residual binding level at 10 uM by Kinomescan method relative to control.
The target in assay [12] is Serine/threonine-protein kinase tousled-like 2 (Homo sapiens) (UniProt Q86UE8). Nature of the assay: Binding affinity to wild-type human partial length TLK2 (E424 to N749 residues) expressed in bacterial expression system assessed as residual binding level at 10 uM by Kinomescan method relative to control.
Assay [13] has as its target Serine/threonine-protein kinase 38-like (Homo sapiens) (UniProt Q9Y2H1). As to the kind of experiment: Binding affinity to wild-type human partial length NDR2 (N34 to E447 residues) expressed in bacterial expression system assessed as residual binding level at 10 uM by Kinomescan method relative to control.
Assay [14] has as its target Serine/threonine-protein kinase Nek3 (Homo sapiens) (UniProt P51956). Nature of the assay: Binding affinity to wild-type human full length NEK3 (M1 to R506 residues) expressed in mammalian expression system assessed as residual binding level at 10 uM by Kinomescan method relative to control.
Assay [15] has as its target LIM domain kinase 2 (Homo sapiens) (UniProt P53671). As to the kind of experiment: Binding affinity to wild-type human full length LIMK2 (M1 to P638 residues) expressed in bacterial expression system assessed as residual binding level at 10 uM by Kinomescan method relative to control.
For assay [16], the target named is Ribosomal protein S6 kinase alpha-3 (Homo sapiens) (UniProt P51812). As to the kind of experiment: Binding affinity to wild-type human partial length N- terminal RSK2 kinase domain 1 (M1 to D394 residues) expressed in mammalian expression system assessed as residual binding level at 10 uM by Kinomescan method relative to control.
In assay [17] the target is cGMP-dependent protein kinase 2 (Homo sapiens) (UniProt Q13237). Nature of the assay: Binding affinity to wild-type human partial length PRKG2 (S422 to F762 residues) expressed in mammalian expression system assessed as residual binding level at 10 uM by Kinomescan method relative to control.
The target of assay [18] is Serine/threonine-protein kinase RIO1 (Homo sapiens) (UniProt Q9BRS2). As to the kind of experiment: Binding affinity to wild-type human full length RIOK1 (M1 to K568 residues) expressed in bacterial expression system assessed as residual binding level at 10 uM by Kinomescan method relative to control.
For assay [19], the target named is cAMP-dependent protein kinase catalytic subunit alpha (Homo sapiens) (UniProt P17612). Nature of the assay: Binding affinity to wild-type human partial length PKAC-alpha (G10 to F351 residues) expressed in bacterial expression system assessed as residual binding level at 10 uM by Kinomescan method relative to control.
Assay [20] relates to Mast/stem cell growth factor receptor Kit (Homo sapiens), P10721 [V559D,T670I]. Nature of the assay: Binding affinity to human partial length KIT V559D/T670I double mutant (Y545 to D952 residues) expressed in bacterial expression system assessed as residual binding level at 10 uM by Kinomescan method relative to control.
Assay [21] addresses Macrophage-stimulating protein receptor (Homo sapiens) (UniProt Q04912). As to the kind of experiment: Binding affinity to wild-type human partial length MST1R (I1057 to L1363 residues) expressed in bacterial expression system assessed as residual binding level at 10 uM by Kinomescan method relative to control.
Assay [22] has as its target TGF-beta receptor type-2 (Homo sapiens) (UniProt P37173). As to the kind of experiment: Binding affinity to wild-type human partial length TGFBR2 (I218 to K567 residues) expressed in bacterial expression system assessed as residual binding level at 10 uM by Kinomescan method relative to control.
Assay [23] concerns the target Mitogen-activated protein kinase kinase kinase 3 (Homo sapiens) (UniProt Q99759). Nature of the assay: Binding affinity to wild-type human partial length MAP3K3 (E320 to Y626 residues) expressed in mammalian expression system assessed as residual binding level at 10 uM by Kinomescan method relative to control.
In assay [24] the target is MAP kinase-interacting serine/threonine-protein kinase 1 (Homo sapiens) (UniProt Q9BUB5). Nature of the assay: Binding affinity to wild-type human full length MKNK1 (M1 to L424 residues) expressed in mammalian expression system assessed as residual binding level at 10 uM by Kinomescan method relative to control.
MAP kinase-interacting serine/threonine-protein kinase 1 (Homo sapiens), sequence (Q9BUB5 whole entry, looked up, the tested form may be a part): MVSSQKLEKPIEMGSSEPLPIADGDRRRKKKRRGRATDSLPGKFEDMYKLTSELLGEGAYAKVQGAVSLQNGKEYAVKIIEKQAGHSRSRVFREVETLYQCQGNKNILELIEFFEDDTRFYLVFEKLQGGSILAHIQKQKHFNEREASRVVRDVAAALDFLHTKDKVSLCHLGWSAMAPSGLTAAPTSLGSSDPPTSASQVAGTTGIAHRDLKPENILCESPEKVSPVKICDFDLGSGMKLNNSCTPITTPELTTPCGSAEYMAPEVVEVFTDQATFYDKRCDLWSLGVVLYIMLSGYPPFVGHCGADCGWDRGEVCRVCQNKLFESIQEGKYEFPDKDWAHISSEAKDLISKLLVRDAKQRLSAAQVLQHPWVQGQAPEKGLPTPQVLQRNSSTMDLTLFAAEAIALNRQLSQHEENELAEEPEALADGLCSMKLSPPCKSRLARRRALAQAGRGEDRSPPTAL

Ribosomal protein S6 kinase alpha-3 (Homo sapiens), sequence (P51812 whole entry, the tested form may be a part): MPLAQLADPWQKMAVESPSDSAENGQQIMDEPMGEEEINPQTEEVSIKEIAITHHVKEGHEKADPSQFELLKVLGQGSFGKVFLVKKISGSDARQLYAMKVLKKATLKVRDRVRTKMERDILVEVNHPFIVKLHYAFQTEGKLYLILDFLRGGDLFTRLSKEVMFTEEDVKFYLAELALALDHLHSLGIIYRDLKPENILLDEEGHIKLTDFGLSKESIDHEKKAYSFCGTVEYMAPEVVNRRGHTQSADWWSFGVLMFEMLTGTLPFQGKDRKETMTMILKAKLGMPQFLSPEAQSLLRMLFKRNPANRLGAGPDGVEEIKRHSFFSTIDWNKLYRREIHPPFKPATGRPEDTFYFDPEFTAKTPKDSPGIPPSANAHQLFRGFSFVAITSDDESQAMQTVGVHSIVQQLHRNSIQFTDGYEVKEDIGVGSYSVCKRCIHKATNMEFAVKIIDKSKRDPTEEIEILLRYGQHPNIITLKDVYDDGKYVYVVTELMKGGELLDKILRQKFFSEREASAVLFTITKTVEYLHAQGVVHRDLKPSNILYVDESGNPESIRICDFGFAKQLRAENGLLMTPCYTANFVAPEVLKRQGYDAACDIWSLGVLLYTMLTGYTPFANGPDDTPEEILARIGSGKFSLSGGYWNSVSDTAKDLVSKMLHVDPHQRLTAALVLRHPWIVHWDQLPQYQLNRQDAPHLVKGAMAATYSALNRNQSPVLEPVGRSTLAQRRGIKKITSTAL
Mitogen-activated protein kinase kinase kinase 3 (Homo sapiens), sequence (Q99759 whole entry, the tested form may be a part): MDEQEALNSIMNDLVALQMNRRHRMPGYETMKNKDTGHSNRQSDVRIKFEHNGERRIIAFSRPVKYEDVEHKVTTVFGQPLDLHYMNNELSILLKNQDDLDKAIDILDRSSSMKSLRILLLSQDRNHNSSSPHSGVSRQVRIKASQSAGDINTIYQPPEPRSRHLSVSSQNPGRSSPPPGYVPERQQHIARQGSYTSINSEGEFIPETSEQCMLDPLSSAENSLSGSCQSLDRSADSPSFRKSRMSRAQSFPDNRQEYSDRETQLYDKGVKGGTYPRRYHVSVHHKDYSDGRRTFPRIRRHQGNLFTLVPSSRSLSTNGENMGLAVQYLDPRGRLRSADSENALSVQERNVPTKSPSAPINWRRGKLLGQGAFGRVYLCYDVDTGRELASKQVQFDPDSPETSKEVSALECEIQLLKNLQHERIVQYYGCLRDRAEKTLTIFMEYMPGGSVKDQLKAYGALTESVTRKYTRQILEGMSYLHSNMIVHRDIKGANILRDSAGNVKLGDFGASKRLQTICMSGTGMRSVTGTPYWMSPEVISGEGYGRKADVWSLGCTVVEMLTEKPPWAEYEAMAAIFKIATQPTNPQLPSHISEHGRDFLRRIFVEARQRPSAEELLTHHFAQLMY
Macrophage colony-stimulating factor 1 receptor (Homo sapiens), sequence (P07333 whole entry, the tested form may be a part): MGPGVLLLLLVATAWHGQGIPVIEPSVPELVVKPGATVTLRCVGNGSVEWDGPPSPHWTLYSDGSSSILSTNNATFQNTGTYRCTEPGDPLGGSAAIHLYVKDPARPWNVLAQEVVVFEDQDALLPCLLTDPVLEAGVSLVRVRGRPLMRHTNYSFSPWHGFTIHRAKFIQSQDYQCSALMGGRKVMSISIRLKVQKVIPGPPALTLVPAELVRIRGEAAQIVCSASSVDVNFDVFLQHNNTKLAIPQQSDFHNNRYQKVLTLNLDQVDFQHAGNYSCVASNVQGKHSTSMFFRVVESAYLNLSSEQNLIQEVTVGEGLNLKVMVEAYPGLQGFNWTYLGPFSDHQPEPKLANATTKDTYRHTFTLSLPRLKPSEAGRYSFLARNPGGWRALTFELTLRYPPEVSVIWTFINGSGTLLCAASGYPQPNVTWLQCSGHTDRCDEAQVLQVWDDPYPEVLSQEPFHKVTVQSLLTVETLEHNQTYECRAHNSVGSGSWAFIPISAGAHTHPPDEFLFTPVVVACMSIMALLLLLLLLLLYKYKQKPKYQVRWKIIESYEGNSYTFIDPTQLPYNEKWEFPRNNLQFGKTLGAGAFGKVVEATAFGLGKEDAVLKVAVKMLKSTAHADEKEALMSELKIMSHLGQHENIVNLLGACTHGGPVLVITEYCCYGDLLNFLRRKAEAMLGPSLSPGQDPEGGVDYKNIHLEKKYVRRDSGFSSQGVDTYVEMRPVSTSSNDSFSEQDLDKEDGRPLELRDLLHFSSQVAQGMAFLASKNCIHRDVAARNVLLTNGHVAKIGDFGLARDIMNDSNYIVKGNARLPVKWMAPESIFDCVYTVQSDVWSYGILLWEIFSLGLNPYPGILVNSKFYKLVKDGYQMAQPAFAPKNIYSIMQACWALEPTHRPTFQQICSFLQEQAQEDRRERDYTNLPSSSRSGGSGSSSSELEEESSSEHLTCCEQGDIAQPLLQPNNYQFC
Insulin receptor-related protein (Homo sapiens), sequence (P14616 27-742 limits assumed): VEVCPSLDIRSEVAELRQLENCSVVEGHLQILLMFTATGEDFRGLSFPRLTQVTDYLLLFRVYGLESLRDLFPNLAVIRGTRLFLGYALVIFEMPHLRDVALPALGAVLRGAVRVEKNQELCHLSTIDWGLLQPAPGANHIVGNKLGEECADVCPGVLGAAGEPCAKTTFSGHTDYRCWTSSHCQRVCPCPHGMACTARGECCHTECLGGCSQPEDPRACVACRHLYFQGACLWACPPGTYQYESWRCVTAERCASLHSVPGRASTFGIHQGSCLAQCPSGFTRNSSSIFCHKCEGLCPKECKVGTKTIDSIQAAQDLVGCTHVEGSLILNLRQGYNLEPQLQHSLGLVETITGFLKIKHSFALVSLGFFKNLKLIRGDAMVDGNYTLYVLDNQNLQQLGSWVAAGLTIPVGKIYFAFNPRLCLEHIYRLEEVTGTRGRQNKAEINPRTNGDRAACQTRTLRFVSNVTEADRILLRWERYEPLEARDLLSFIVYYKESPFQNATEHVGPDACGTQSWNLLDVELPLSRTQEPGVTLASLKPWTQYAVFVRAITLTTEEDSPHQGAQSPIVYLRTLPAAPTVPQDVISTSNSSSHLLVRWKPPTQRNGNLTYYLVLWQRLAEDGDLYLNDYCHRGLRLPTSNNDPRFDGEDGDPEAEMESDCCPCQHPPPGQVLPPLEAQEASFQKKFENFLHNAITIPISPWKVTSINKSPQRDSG
Insulin receptor-related protein (Homo sapiens), sequence (P14616 747-1297 limits assumed): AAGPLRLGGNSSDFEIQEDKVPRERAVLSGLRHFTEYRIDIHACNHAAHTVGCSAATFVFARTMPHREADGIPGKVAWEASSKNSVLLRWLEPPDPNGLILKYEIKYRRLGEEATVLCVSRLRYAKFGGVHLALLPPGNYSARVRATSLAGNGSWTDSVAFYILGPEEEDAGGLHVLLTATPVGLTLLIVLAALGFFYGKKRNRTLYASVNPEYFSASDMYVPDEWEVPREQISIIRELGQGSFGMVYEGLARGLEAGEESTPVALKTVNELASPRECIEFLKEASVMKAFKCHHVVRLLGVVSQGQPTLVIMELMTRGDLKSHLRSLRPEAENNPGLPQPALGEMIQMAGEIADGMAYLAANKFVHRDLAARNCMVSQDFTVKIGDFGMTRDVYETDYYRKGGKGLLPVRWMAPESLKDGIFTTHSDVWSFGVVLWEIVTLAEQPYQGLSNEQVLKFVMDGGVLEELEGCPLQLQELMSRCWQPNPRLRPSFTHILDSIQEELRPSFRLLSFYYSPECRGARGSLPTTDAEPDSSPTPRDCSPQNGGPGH
Dual specificity protein kinase CLK3 (Homo sapiens), sequence (P49761 whole entry, looked up, the tested form may be a part): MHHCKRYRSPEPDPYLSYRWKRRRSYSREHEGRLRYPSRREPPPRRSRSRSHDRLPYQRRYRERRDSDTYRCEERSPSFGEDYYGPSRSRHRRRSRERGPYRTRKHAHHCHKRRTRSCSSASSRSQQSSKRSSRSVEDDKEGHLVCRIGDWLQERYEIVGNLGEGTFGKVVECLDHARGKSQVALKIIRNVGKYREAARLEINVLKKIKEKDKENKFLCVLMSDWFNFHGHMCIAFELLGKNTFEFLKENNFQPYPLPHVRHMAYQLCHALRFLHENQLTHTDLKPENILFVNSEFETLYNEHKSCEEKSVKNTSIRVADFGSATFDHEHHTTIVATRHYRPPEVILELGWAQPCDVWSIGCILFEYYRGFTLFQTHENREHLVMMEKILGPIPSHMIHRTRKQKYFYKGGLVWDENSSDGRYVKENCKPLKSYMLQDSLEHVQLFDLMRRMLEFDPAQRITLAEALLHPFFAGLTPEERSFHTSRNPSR
Serine/threonine-protein kinase 38-like (Homo sapiens), sequence (Q9Y2H1 2-464 limits assumed): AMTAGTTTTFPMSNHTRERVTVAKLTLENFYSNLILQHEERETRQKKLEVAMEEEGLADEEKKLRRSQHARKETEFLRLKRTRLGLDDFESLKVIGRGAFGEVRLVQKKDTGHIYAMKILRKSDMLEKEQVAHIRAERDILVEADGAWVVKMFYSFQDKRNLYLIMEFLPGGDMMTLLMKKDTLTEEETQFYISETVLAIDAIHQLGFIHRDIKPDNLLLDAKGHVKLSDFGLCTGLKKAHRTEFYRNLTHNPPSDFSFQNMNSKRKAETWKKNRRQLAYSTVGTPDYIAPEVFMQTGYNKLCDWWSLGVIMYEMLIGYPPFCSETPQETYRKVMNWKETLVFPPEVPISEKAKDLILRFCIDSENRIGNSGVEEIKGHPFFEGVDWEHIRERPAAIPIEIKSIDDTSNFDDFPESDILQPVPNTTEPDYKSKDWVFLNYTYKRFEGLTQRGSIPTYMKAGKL

In the case of `CC(C)N1C(=O)C(NCCCN(C)C)=C(c2cn(C)c3ccccc23)C1=O.Cl`, the Activity in assay [1] turned out to be 74%; in assay [2] it was 100%; in assay [3], 92%; in assay [4], 91%; in assay [5] it was 100%; in assay [6], 69%. For the same compound, the Activity in [7] turned out to be 87%; in assay [8] it was 96%; in [9] it was 95%; in assay [10] it was 98%; in assay [11], 82%; in [12], 84%. The Activity in assay [13] turned out to be 74%; in assay [14], 94%; in assay [15], 93%; in assay [16], 92%; in assay [17], 88%; in [18], 100%. Moreover, the Activity was found to be 84% in assay [19]; 100% in assay [20]; 100% in [21]; 92% in assay [22]; 100% in assay [23]; 100% in [24].
